Assay results reported in patent US11345700B2, “Methods of preparing inhibitors of influenza viruses replication” (priority 2013, dated 2022).
Marks after values point to notes of the source that are not given here.

Columns and labels:
[1] = system: influenza A virus; assay: Mouse influenza A model: prophylactic dose response and delayed treatment, survival and body weight loss; type: in vivo, mice; settings: treatment start −2 h relative to infection
Description: The prophylactic dose response of Compound (1) was investigated in the mouse influenza A model. […] All of the mice that received vehicle alone succumbed to the infection by study day 9 and had lost, on average, ˜32% of their body weight (BW).
All vehicle controls succumbed to disease by study days 8 or 9.

[2] = system: influenza A; assay: Mouse model of influenza A: lung viral titers; type: in vivo, mice; settings: for Log10 Reduction vs. Vehicle: study day 6; for Lung Viral Titer: titers on study day 6
[3] = system: influenza virus; type: in vivo, mice
[4] = system: influenza A/Wisconsin/67/2005 (H3N2) challenge strain virus; assay: Human live attenuated influenza challenge: nasal viral shedding by TCID50 cell culture assay; type: in vivo, healthy volunteers (humans)
Procedure: (§1) Subjects underwent thrice daily nasal swabs, and kept thrice daily score cards for clinical symptoms from Days 1-7, and were discharged from the facility on Day 8, with safety follow-up at approximately Day 28. Nasal swabs were assayed for influenza virus in cell culture (primary analysis) and by qRT-PCR (secondary analysis).
Additional FA group analyses were performed (data not shown).

[5] = system: influenza A/Wisconsin/67/2005 (H3N2) challenge strain virus; assay: Human influenza challenge: clinical and influenza-like symptom scores; type: in vivo, healthy volunteers (humans)
Procedure: as §1
Subjects recorded clinical symptoms three times a day in diaries. An AUC of clinical and influenza-like symptom scores from Day 1 through Day 7 was calculated.

[6] = Study 1, 30 mg/kg BID from 24 h post infection for 5 days
[7] = Study 2, 3 mg/kg BID from 24 h post infection for 5 days
[8] = Study 2, 10 mg/kg BID from 24 h post infection for 5 days
[9] = Study 2, 30 mg/kg BID from 24 h post infection for 5 days
[10] = Pooled Compound (1) dose groups (N = 52)

O=C(O)[C@H]1[C@H]2CC[C@H](CC2)[C@@H]1Nc1nc(-c2c[nH]c3ncc(F)cc23)ncc1F [Compound (1)]
Percent Survival ([1]; 0.3 mg/kg BID): 25% | Percent Body Weight Loss on Study Day 8 ([1]; 1 mg/kg BID): −16.8% | Percent Survival ([1]; 1 mg/kg BID): 100% | Percent Body Weight Loss on Study Day 8 ([1]; 3 mg/kg BID): −8.7% | Percent Survival ([1]; 3 mg/kg BID): 100% | Percent Body Weight Loss on Study Day 8 ([1]; 10 mg/kg BID): −2.8% | Percent Survival ([1]; 10 mg/kg BID): 100% | Log10 Reduction vs. Vehicle [2, 6]: −2.25*** | Lung Viral Titer [2, 6]: 3.95 Log10 TCID50 | Log10 Reduction vs. Vehicle [2, 7]: −1.04 | Lung Viral Titer [2, 7]: 5.24*** Log10 TCID50 | Log10 Reduction vs. Vehicle [2, 8]: −1.08 | Lung Viral Titer [2, 8]: 5.20*** Log10 TCID50 | Log10 Reduction vs. Vehicle [2, 9]: −1.75 | Lung Viral Titer [2, 9]: 4.53*** Log10 TCID50 | half maximal reduction in lung titers ([3]; mice infected 24 h, then dosed for 24 h (q6 h, q12 h, q24 h)): 2-3 log | serum-shifted EC99 ([3]; plasma concentration near which half maximal reduction in lung titers occurs): 100 ng/mL | Viral Shedding by Tissue Culture AUC, median ([4]; 100 mg QD (N = 12)): 1.25 log10 TCID50 mL*Day | Viral Shedding by Tissue Culture Duration, median ([4]; 100 mg QD (N = 12)): 0.96 days | Viral Shedding by Tissue Culture Peak, mean ([4]; 100 mg QD (N = 12)): 2.09 log10 TCID50/mL | Viral Shedding by Tissue Culture AUC, median ([4]; 400 mg QD (N = 12)): 0.70 log10 TCID50 mL*Day | Viral Shedding by Tissue Culture Duration, median ([4]; 400 mg QD (N = 12)): 1.60 days | Viral Shedding by Tissue Culture Peak, mean ([4]; 400 mg QD (N = 12)): 1.73 log10 TCID50/mL | Viral Shedding by Tissue Culture AUC, median ([4]; 900/600 mg (N = 14)): 3.20 log10 TCID50 mL*Day | Viral Shedding by Tissue Culture Duration, median ([4]; 900/600 mg (N = 14)): 2.71 days | Viral Shedding by Tissue Culture Peak, mean ([4]; 900/600 mg (N = 14)): 2.68 log10 TCID50/mL | Viral Shedding by Tissue Culture AUC, median ([4]; 1200/600 mg (N = 14)): 0.35 log10 TCID50 mL*Day | Viral Shedding by Tissue Culture Duration, median ([4]; 1200/600 mg (N = 14)): 0.00 days | Viral Shedding by Tissue Culture Peak, mean ([4]; 1200/600 mg (N = 14)): 1.00 log10 TCID50/mL | Viral Shedding by Tissue Culture AUC, median [4, 10]: 0.65 log10 TCID50 mL*Day | Viral Shedding by Tissue Culture Duration, median [4, 10]: 0.71 days | Viral Shedding by Tissue Culture Peak, mean [4, 10]: 1.87 log10 TCID50/mL | Composite Clinical Symptom AUC, median ([5]; 100 mg QD (N = 12)): 1.85 Grade*Day | Composite Clinical Symptom Duration, median ([5]; 100 mg QD (N = 12)): 3.21 days | Composite Clinical Symptom Peak, mean ([5]; 100 mg QD (N = 12)): 3.17 Grade | Influenza like Symptom AUC, median ([5]; 100 mg QD (N = 12)): 1.85 Grade*Day | Influenza like Symptom Duration, median ([5]; 100 mg QD (N = 12)): 3.21 days | Influenza like Symptom Peak, mean ([5]; 100 mg QD (N = 12)): 2.75 Grade | Composite Clinical Symptom AUC, median ([5]; 400 mg QD (N = 12)): 4.70 Grade*Day | Composite Clinical Symptom Duration, median ([5]; 400 mg QD (N = 12)): 3.34 days | Composite Clinical Symptom Peak, mean ([5]; 400 mg QD (N = 12)): 2.83 Grade | Influenza like Symptom AUC, median ([5]; 400 mg QD (N = 12)): 3.80 Grade*Day | Influenza like Symptom Duration, median ([5]; 400 mg QD (N = 12)): 3.34 days | Influenza like Symptom Peak, mean ([5]; 400 mg QD (N = 12)): 2.42 Grade | Composite Clinical Symptom AUC, median ([5]; 900/600 mg (N = 14)): 1.75 Grade*Day | Composite Clinical Symptom Duration, median ([5]; 900/600 mg (N = 14)): 2.69 days | Composite Clinical Symptom Peak, mean ([5]; 900/600 mg (N = 14)): 3.71 Grade | Influenza like Symptom AUC, median ([5]; 900/600 mg (N = 14)): 1.75 Grade*Day | Influenza like Symptom Duration, median ([5]; 900/600 mg (N = 14)): 2.69 days | Influenza like Symptom Peak, mean ([5]; 900/600 mg (N = 14)): 3.21 Grade | Composite Clinical Symptom AUC, median ([5]; 1200/600 mg (N = 14)): 1.95 Grade*Day | Composite Clinical Symptom Duration, median ([5]; 1200/600 mg (N = 14)): 1.88 days | Composite Clinical Symptom Peak, mean ([5]; 1200/600 mg (N = 14)): 1.50 Grade | Influenza like Symptom AUC, median ([5]; 1200/600 mg (N = 14)): 1.75 Grade*Day | Influenza like Symptom Duration, median ([5]; 1200/600 mg (N = 14)): 1.88 days | Influenza like Symptom Peak, mean ([5]; 1200/600 mg (N = 14)): 1.36 Grade | Composite Clinical Symptom AUC, median [5, 10]: 2.15 Grade*Day | Composite Clinical Symptom Duration, median [5, 10]: 2.34 days | Composite Clinical Symptom Peak, mean [5, 10]: 2.79 Grade | Influenza like Symptom AUC, median [5, 10]: 2.05 Grade*Day | Influenza like Symptom Duration, median [5, 10]: 2.34 days | Influenza like Symptom Peak, mean [5, 10]: 2.42 Grade
